For series [1], the system named is CLL patient cells. In words: Peptide uptake (flow cytometry). The format is cell-based, human. Conditions: 5 μM thiazole orange-labeled peptide, 15 min; CLL cells vs PBSCs and mononuclear cells. The procedure: CLL patient samples, PBSCs and healthy donor B cells were seeded at 200,000 cells per well in triplicate in a 24-well plate in Iscove's media. Cells were then incubated with 5 μM thiazole orange-labeled peptide for 15 min, washed with PBS and analyzed on FACSCanto (BD, Franklin Lakes) to determine relative intracellular peptide concentrations.

The test system of series [2] is HeLa cells. Kind of series: Analysis of toxicity, CCK-8 viability, HeLa. The format is cell-based.
Series [3] deals with HeLa cells. Kind of series: Mitochondrial membrane potential (JC-1, flow cytometry). The format is cell-based. Conditions: 1 hour treatment. The procedure:
HeLa cells were seeded at 50,000 cells per well 24 hours prior to experiment. CLL patient samples, PBSCs and healthy donor B cells were seeded at 200,000 cells per well in triplicate in a 24-well plate in Iscove's media. Cells were then incubated with 2 μM of 5,5′,6,6′-tetrachloro-1,1′,3,3′-tetraethylbenzimidazolylcarbocyanine iodide (JC-1, Invitrogen, Carlsbad) for 20 minutes at 37° C. Each sample was then washed twice with 1 mL PBS and resuspended in 300 μL PBS prior to being read on a BD FACS Canto. Samples were excited at 488 nm and emission was collected at 526 nm (green) and 595 nm (red). To obtain the mitochondrial membrane potential (red/green), emission from the red channel was divided by emission from the green channel. For membrane depolarization studies, HeLa cells were treated with Cbl or MPP-Cbl for 1 hour in OPTI-MEM (Invitrogen, Carlsbad) prior to incubation with JC-1. Cells were washed with PBS, trypsinized and analyzed as above.
Background: In flow cytometry, cells or beads pass a laser one at a time.

The subject of series [4] is pBR322DNA. In words: Crosslinking of isolated DNA. The format is biochemical. Conditions: 2-200 μM. The protocol:
Crosslinking of isolated pBR322DNA was determined from a modification of a published method.^30 Briefly, pBR322DNA was incubated with compounds at concentrations and times indicated in 25 mM triethanolamine (pH 7.2) and 1 mM EDTA. Reactions were terminated by the addition of 50 mM EDTA and 150 μg/ml excess short oligonucleotide DNA. Samples were denatured at 95° C. in denaturation buffer (30% DMSO, 1 mM EDTA, bromophenol blue, xylene cyanol, and 0.4% SDS) for 3 min and flash frozen in a dry ice/ethanol bath. Electrophoresis was carried out in 0.8% agarose in TAE buffer and stained post-run with ethidium bromide.

For series [5], the system named is 17.7 kb nuclear DNA segment (β-globin gene) in HL60 cells. Kind of series: DNA lesion frequency by quantitative PCR, nuclear DNA. The format is cell-based. Conditions: HL60, Cbl 150 μM or mt-Cbl 3 μM, 2 hr. The procedure:
(§1) A total of 5×10^6 HL60 cells were treated with Cbl (150 μM) or mt-Cbl (3 μM) for 2 hr. DNA was isolated from frozen cell pellets with the QIAGEN Genomic Tip and Genomic DNA Buffer Set Kit (QIAGEN) and quantified using the PicoGreen dye (Invitrogen). Quantitative amplification of the 8.9 kb mitochondrial segment and the 17.7 kb β-globin target sequence was performed using the GeneAmp XL PCR kit (Perkin-Elmer) as described previously^31. Lesion frequency at a given dose, D, was calculated as D=−In AD/AC, where AD is the amplification at the dose, and AC is the level of amplification in nondamaged controls.

Series [6] has as its system 8.9 kb mitochondrial DNA segment in HL60 cells. In words: DNA lesion frequency by quantitative PCR, mitochondrial DNA. Conditions: HL60, Cbl 150 μM or mt-Cbl 3 μM, 2 hr. The class given is cell-based. The procedure: as §1
Series [7] deals with HL60 cells. Kind of series: Quantitative real-time PCR array of DNA damage signaling genes. The settings on record: for DDIT3/GADD153 change in expression: vs untreated cells. The format is cell-based, human. A general note: Quantitative PCR measures a nucleic acid by following its amplification.
In series [8] the test system is HL60 cells. In words: Western blots of GADD45G pathway effector proteins (p38, JNK). The class given is cell-based. Conditions: HL60, immunoblotting. The protocol: Leukemia cells were cultured as above and were washed twice with PBS prior to lysis (10 mM Tris, 200 mM NaCl, 1 mM EDTA (pH 7.4), 1 mM PMSF, 0.5% NP-40, 1% Triton X-100, 1× Protease Inhibitor Cocktail (Bioshop, Burlington, ON)) at 4° C., 30 min. Cells were then centrifuged at 1,200 rcf, 4° C., 5 min and protein levels were quantified using bicinchoninic acid (BCA) assay (Pierce, Rockford). 15 μg of total protein was diluted in 8× sample buffer and heated to 42° C. for 5 min prior to loading on 15% gel. Gels were run at 100 V for 1 h, and then proteins were transferred onto nitrocellulose membrane at 100 V for 40 min. Membranes were blocked with 5% skim milk for 1 hour and then probed with primary antibody according to manufacturer's instructions (1:500 BclXL antibody [Abcam, Cambridge, Mass.], 1:2000 β-actin antibody [Abcam], 1:1000 phospho INK [Abcam], 1:1000 phospho p38 [Abcam], 1:1000 GADD45G [Santa Cruz Biotechnology, Santa Cruz, Calif.], 1:1000 PPP1R15A [Santa Cruz Biotechnology], 1:1000 DNA Ligase III [Santa Cruz Biotechnology], 1:1000 p21 [Santa Cruz Biotechnology], and 1:1000 DDIT3 [Cell Signaling Technology, Beverly, Mass.]). Membranes were then washed and incubated with 1:5000 donkey anti-mouse or goat anti-rabbit IgG-HRP secondary antibody for 1 hr prior to ECL chemiluminescence detection (GE Amersham).

The subject of series [9] is A2780 wildtype cells. Kind of series: Annexin V apoptosis assay, A2780 wild-type. The format is cell-based. The settings on record: A2780 wild-type line.
The test system of series [10] is A2780 Cbl-resistant cells. Kind of series: Annexin V apoptosis assay, A2780 Cbl-resistant. The class given is cell-based. Conditions: A2780 Cbl-resistant line.
Series [11] has as its system red blood cells (healthy donors). Kind of series: Hemolysis assay. The format is cell-based, human. The settings on record: RBCs of healthy donors, at concentrations used (LC25, LC50). The protocol: Red blood cells obtained during Ficoll separation of healthy donor peripheral blood was used for this assay. Cells were washed with PBS until the supernatant was clear. Peptide solutions were made in Iscove's media and a 1:2 dilution was made across a 96-well plate. To each well, 2 μl, of red blood cells were added, mixed and then incubated for 1 hour at 37° C. with 5% CO2. For 100% lysis, 0.1% Triton X-100 was added to three wells and for 0% lysis, cells from three wells without peptide were used. Plates were spun at 1000×g for 10 min and 50 μL of supernatant was then transferred to a new plate, mixed with 50 μL of PBS and read at 415 nm.

Series [12] has as its system CLL patient cells. In words: Annexin V/Sytox Red viability of CLL patient cells versus healthy donor cells. The class given is cell-based, human. The settings on record: LC25 and LC50; PBSCs and mononuclear cells of healthy donors as comparison.
Series [13] deals with M2 (OCI-M2) cells. Kind of series: Analysis of toxicity, CCK-8 viability, leukemia panel: M2.
Series [14] has as its system K562 cells. In words: Analysis of toxicity, CCK-8 viability, leukemia panel: K562.
The test system of series [15] is LY17 cells. In words: Analysis of toxicity, CCK-8 viability, leukemia panel: LY17. The settings on record: read-out: LC50.
The subject of series [16] is HL60 cells. Kind of series: Analysis of toxicity, CCK-8 viability, leukemia panel: HL60. Conditions: for LC25 dose: HL60 cells.
In series [17] the test system is U937 cells. In words: Analysis of toxicity, CCK-8 viability, leukemia panel: U937. Conditions: Homo sapiens, U-937, read-out: LC50.
In series [18] the test system is AML2 (OCI-AML2) cells. In words: Analysis of toxicity, CCK-8 viability, leukemia panel: AML2. The settings on record: Homo sapiens, OCI-AML2, read-out: LC50.
For series [19], the system named is DAUDI cells. In words: Analysis of toxicity, CCK-8 viability, leukemia panel: DAUDI. The settings on record: Homo sapiens, read-out: LC50.
The test system of series [20] is HeLa cells. In words: Analysis of mitochondrial superoxide levels (MitoSOX, flow cytometry). The settings on record: 1 hour treatment. The format is cell-based. The protocol: HeLa cells were plated at 100,000 per well of a 24-well plate 24 hours prior to experiment and treated with Cbl or MPP-Cbl in OPTI-MEM (Invitrogen, Carlsbad) for 1 hour. Media was removed and cells were incubated with MitoSox (Invitrogen, Carlsbad) according to manufacturer's instructions. Cells were washed with PBS, trypsinized and analyzed via flow cytometry with FACSCanto (BD, Franklin Lakes).

Series [21] can be described thus: Colorimetric alkylation assay. The format is biochemical. Conditions: absorbance of 4-NBP upon alkylation. The protocol:
Alkylation was tested using 4-(4-Nitrobenzyl)pyridine (4-NBP) (Thomas, et al., 1992). Briefly, compound (200-450 μM) was incubated with 4-NBP (0.7% w/vol) in a buffer containing 85 mM triethanolamine (pH 7.2) and 43% acetone. Reactions were incubated at 37° C. for 30-120 min. Reactions were terminated by freezing in a dry ice/ethanol bath. To develop samples, […] ethyl acetate and 25 μl 5N NaOH were added followed by vortexing. Absorbance of organic ethyl acetate was read at 540 nm.

The conditions of series [22]: immunogold TEM, mouse liver mitochondria.
Procedure: Mitochondria were isolated from fresh mouse liver as previously described^1. Functionality was confirmed using respirometry. The isolated organelles were used only when the levels of oxygen consumption in state III respiration (presence of ADP) were >4 fold greater than in state II respiration, indicating well-coupled mitochondria. Mitochondrial protein concentration was determined by BCA assay (Sigma). […] Cold PBS was added and mitochondria were pelleted by centrifugation. The pellet was fixed in 1% glutaraldehyde in PBS for 90 min at room temperature, washed with PBS, then fixed with 1% osmium tetroxide for 2 hr at 4° C. The pellets were dehydrated using graded ethanol, followed by stepwise infiltration with propylene oxide and Epon-Araldite resin. The pellets were cured in resin for 48 hr at 60° C. The blocks were sectioned to 60 nm and the sections adhered to nickel grids for 30 min at 60° C. The grids were floated on saturated aqueous sodium metaperiodate for an hour at room temperature, washed, then blocked with 1% BSA, and labeled with Anti-biotin (Jackson Immunolabs) followed by Protein A-gold (Aurion, 10 nm). The grids were rinsed with water and stained with 2% uranyl acetate for 5 minutes. To quantitate gold labeling, 200 gold particles (for more densely labeled samples) or 400 mitochondria (for less densely labeled samples) were counted for each counting event. […]
The mark [23] stands for this setting: HL60, LC25 dose, greater with mt-Cbl relative to Cbl alone.

As a reminder, the EC50 is the midpoint of the concentration-response curve.

“Also recorded” adds a separate entry of the source. Non-standard residues stand in square brackets, D forms with d. Residues, ends and D or L forms follow the SMILES beside them. *: point of attachment. Chlorambucil = O=C(CCCc1ccc(N(CCCl)CCCl)cc1)*; Cha = N[C@@H](CC1CCCCC1)C(=O)O

On to TO-FxrFxrFxr [to-MPP], for which the peptide uptake result in series [1] is “higher levels of peptide uptake in CLL cells”.

For the molecule Ac-FxrFxrFxr [MPP], the toxicity result in series [2] (concentration range tested) is on record as “did not show appreciable toxicity”.

In the case of `O=C(O)CCCc1ccc(N(CCCl)CCCl)cc1` [Cbl, chlorambucil], in series [3], the “depolarization of mitochondrial membrane” value is recorded as “not with Cbl”. The DNA crosslink formation entry in series [4] is recorded as “concentration-dependent crosslink formation”. In [5], the “damage of nuclear DNA” value is given as “primarily damaged nuclear DNA”. In addition, the “damage of mitochondrial DNA” value in [6] was “very few mitochondrial lesions”. Also, in [7] (HL60, LC25 dose), the p21 expression entry was “overexpressed”. The “DDIT3/GADD153 change in expression” value in [7] (HL60, LC25 dose) came to 5 fold. In series [8], the “activation of p38 or JNK pathways” value is “activating p38”. Further, the “induction of cell death” value in series [9] is reported as “able to induce cell death”. In addition, the toxicity entry in [10] (even at 100 μM) is given as “insignificant”. For the same molecule, the hemolysis result in [11] was “minimal”. For the same molecule, in [12], the “selective toxicity to CLL patient cells versus healthy donor cells” value was “more selectively toxic to CLL patient samples cells”. Further, the CC50 in series [13] (OCI-M2, read-out: LC50) came out at 311 ± 24 µM; in series [14] (Homo sapiens, K562, read-out: LC50) it was 306 ± 26 µM; in [15] it was 55 ± 7 µM; in [16] (Homo sapiens, HL-60, read-out: LC50), 34 ± 6 µM; in series [17] it was 34 ± 5 µM; in series [18], 28 ± 3 µM. Further, the CC50 in [19] is 27 ± 7 µM. Also, the “resistance to Cbl relative to rest of the cohort” value in series [13] (OCI-M2 cells) and in series [14] (K562 cells) was “approximately 10 fold” in each case. Also, the LC25 dose in [16] amounted to 17 µM. The EC50 in series [16] (Homo sapiens, HL-60) was 34 µM.

For `CC(=O)N[C@@H](CC1CCCCC1)C(=O)N[C@H](CCCNC(=N)N)C(=O)N[C@@H](CC1CCCCC1)C(=O)N[C@H](CCCNC(=N)N)C(=O)N[C@@H](CC1CCCCC1)C(=O)N[C@H](CCCNC(=N)N)C(=O)N[C@H](CCCCNC(=O)CCCc1ccc(N(CCCl)CCCl)cc1)C(N)=O` [MPP-Cbl, Ac-FxrFxrFxrk-Cbl] (Ac-[Cha][dR][Cha][dR][Cha][dR][dK](Chlorambucil)-NH2), the “increase in potency compared to Cbl” value in [2] (cell viability assay, 24 hours) was 100 fold. The “increase of mitochondrial superoxide levels” value in series [20] is on record as “noted upon MPP-Cbl treatment”. Besides, the “depolarization of mitochondrial membrane” value in series [3] is recorded as “noted upon MPP-Cbl treatment”. Further, in series [21], the “reduction of alkylating ability compared to Cbl alone” value is “approximately two fold”. For the same molecule, in series [4], the DNA crosslink formation result is recorded as “concentration-dependent crosslink formation”. For the same molecule, the “damage of nuclear DNA” value in series [5] is given as “minimal effect on the nuclear genome”. In addition, the “damage of mitochondrial DNA” value in [6] is “significant reduction of mitochondrial DNA amplification”. Further, in [7] (HL60, LC25 dose), the p21 expression result was “overexpressed” and the “DDIT3/GADD153 change in expression” value is “no change”. For the same molecule, in [7] (setting [23]), the GADD45G upregulation was 15 fold and the PPP1R15A/GADD34 upregulation is 4 fold. Also, the “Ligase III increase in expression” value in [7] (HL60, LC50 dose, 1 hr) is “this was detected”. Moreover, the “activation of p38 or JNK pathways” value in series [8] is listed as “activating JNK”. Besides, in series [9], the “concentration inducing cell death” value was determined as 9 µM. Besides, in series [10] (value comparable to wild-type), the “concentration inducing cell death” value is 9 µM. Besides, the hemolysis entry in series [11] was “nominal hemolysis levels; also recorded: minimal”. In series [12], the “selective toxicity to CLL patient cells versus healthy donor cells” value is “more selectively toxic to CLL patient samples cells”. In addition, the LC25 dose in series [16] was found to be 3 µM.

Take Biotin-FxrFxrFxr [Biotin-MPP]: the “localization within isolated mitochondria” value in series [22] was “predominantly matrix localization”.

The record behind these values is US9132198B2, “Mitochondrial penetrating peptides as carriers for anticancer compounds” (priority 2011, dated 2015).
